Laboratory results as given in US6375979B2 (Somerset Pharmaceuticals, Inc., priority 1995, dated 2002).
Where “and” joins values, the source holds several entries; their conditions need not be identical. Equal values may be shown once. Read-outs that look alike come from different tables or passages of the source.

What was measured:
[1] = tested on: cultured rat mesencephalic cells exposed to NMDA; experiment: NMDA model of cell death: [3H]-dopamine uptake; conditions: 100 μM NMDA exposure
wobbler mouse = experiment: Wobbler mouse model of motor neuron disease; format: in vivo; conditions: 0.1 mg/kg daily intra-peritoneal for 30 days; range in parentheses
Description: The ability of the enantiomers of DMS to prevent neurological deterioration was examined by administering the agents to the wobbler mouse, an animal model of motor neuron diseases, particularly amyotrophic lateral sclerosis (ALS).
A 0.1 mg/kg dose of R(−)DMS, S(+)DMS or placebo was administered to wobbler mice by daily intra-peritoneal injection for a period of 30 days in a randomized, double-blind study. At the end of this time mice were examined for grip strength, running time, resting locomotive activity and graded for semi-quantitative paw posture abnormalities, and semi-quantitative walking abnormalities. The investigators who prepared and administered the test drugs to the animals were different than those who analyzed behavioral changes.
Assays and grading were performed essentially as described in Mitsumoto et al., Ann. Neurol. 36:142-148 (1994). Grip strength of the front paws of a mouse was determined by allowing the animal to grasp a wire with both paws. […] The reading on the dynamometer at the point of release is taken as a measure of grip strength.
Running time is defined as the shortest time necessary to traverse a specified distance, e.g. 2.5 feet and the best time of several trials is recorded. […]
Locomotive activity is determined by transferring animals to an examination area in which the floor is covered with a square grid. […]

[2] = tested on: cultured rat mesencephalic cells; experiment: Medium change (glutamate receptor dependent) model of cell death: [3H]-dopamine uptake; conditions: for Dopamine uptake, % control, Mean / Dopamine uptake, % control, individual cultures / Dopamine uptake, counts/min, Mean / Dopamine uptake, counts/min, individual cultures / more axonal growth and terminal axonal survival compared to untreated control cells / 3H-Dopamine uptake as a percentage + SEM: medium change model; for neuron protection by measurement of dopamine uptake (FIG. 15): glutamate receptor dependent model; for more axonal growth and terminal axonal survival compared to untreated control cells / 3H-Dopamine uptake as a percentage + SEM: 10 μM; for 3H-Dopamine uptake as a percentage + SEM: control = 100
Description: Preparations are then added to 10 ml Ecoscint (National Diagnostics) and counted in a scintillation spectrometer.
In these experiments, cells were plated and allowed to stabilize for several days.

γ-interferon production = γ-interferon production by concanavalin A-stimulated spleen cells of treated old rats; format: in vivo, rat; conditions: for IFN-γ % control / IFN-γ U/ml mean: old rats, ip daily 60 days, 1.0 mg/kg (for DMS enantiomers)
Description: Rats were divided into the following experimental groups:
(§1) Rats were administered saline or test agent ip, daily for 60 days. They were then maintained for an additional “wash out” period of 10 days during which time no treatment was given. At the end of this time, animals were sacrificed and their spleens were removed. The spleen cells were then assayed for a variety of factors which are indicative of immune system function. Specifically, standard tests were employed to determine the following:
1) in vitro production of γ-interferon by concanavalin A-stimulated spleen cells;

rat spleens = experiment: Histological immunofluorescence of spleen innervation in old rats; format: in vivo; conditions: ip daily 60 days
Description: as §1
Histological immunofluorescence studies show a dramatic loss of innervation in rat spleens with age.

interleukin-2 production = experiment: Concanavalin A-induced interleukin-2 production by spleen cells of treated old rats; format: in vivo, rat; conditions: for IL-2 % control / IL-2 U/ml mean: ip daily 60 days
Description: The present experiments utilized a rat model to examine the ability of R(−)DMS and S(+)DMS to restore immunological function. Rats were divided into the following experimental groups:
as §1
2) in vitro concanavalin A-induced production of interleukin-2;

MAO-A = target: T1, MAO-A (Cavia porcellus, UniProt H0UVA2); experiment: MAO-A inhibition in guinea pig hippocampal homogenates in vitro; format: biochemical; set-up: by human platelets and/or guinea pig hippocampal homogenates; from tissue; host or cells: guinea pig hippocampus homogenate; conditions: for reduction in potency compared to selegiline (value in parentheses): MAO-A IC50, guinea pig hippocampal cortex
T1 sequence (H0UVA2 1-461): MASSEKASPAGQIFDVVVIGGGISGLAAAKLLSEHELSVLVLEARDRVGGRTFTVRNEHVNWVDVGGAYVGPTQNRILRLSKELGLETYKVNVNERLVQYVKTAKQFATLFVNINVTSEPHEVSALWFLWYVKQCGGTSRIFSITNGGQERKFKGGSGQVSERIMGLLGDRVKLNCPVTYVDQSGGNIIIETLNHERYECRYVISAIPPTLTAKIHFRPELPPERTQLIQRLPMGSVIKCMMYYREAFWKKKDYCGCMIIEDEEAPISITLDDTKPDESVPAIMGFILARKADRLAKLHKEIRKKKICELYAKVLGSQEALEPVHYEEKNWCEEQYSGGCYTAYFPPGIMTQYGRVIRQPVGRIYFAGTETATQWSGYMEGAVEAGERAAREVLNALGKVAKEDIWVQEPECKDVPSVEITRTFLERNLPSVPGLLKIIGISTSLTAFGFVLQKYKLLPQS
Excerpt: Human platelet MAO is comprised exclusively of the type-B isoform of the enzyme. […] The present study also examined the two enantiomers of DMS for inhibitory activity with respect to the MAO-A and MAO-B in guinea pig hippocampal tissue. Guinea pig brain tissue is an excellent animal model for studying brain dopamine metabolism, the enzyme kinetics of the multiple forms of MAO and the inhibitory properties of novel agents that interact with these enzymes. The multiple forms of MAO in this animal species show similar kinetic properties to those found in human brain tissue. Finally, the test agents were administered to guinea pigs and the extent to which they might act as inhibitors of brain MAO in vivo was assessed.
In vitro: The test system utilized the in vitro conversion of specific substrates of MAO-A (^14C-serotonin) and MAO-B (^14C-phenylethylamine) by human platelets and/or guinea pig hippocampal homogenates. […] A percent inhibition was calculated from these values.

[3] = 1.0 mg/kg (for DMS enantiomers)

desmethylselegiline [R(−)DMS]
Dopamine uptake, % control, Mean ([1]; 0.5 μM): 138.6%
Dopamine uptake, % control, individual cultures ([1]; 0.5 μM): 167.3% and 138.9% and 132.9% and 133.6% and 120.4%
Dopamine uptake, counts/min, Mean ([1]; 0.5 μM): 9365.2 counts/min
Dopamine uptake, counts/min, individual cultures ([1]; 0.5 μM): 11304 counts/min and 9385 counts/min and 8976 counts/min and 9028 counts/min and 8133 counts/min
Dopamine uptake, % control, Mean ([1]; 5.0 μM): 177.6%
Dopamine uptake, % control, individual cultures ([1]; 5.0 μM): 163.0% and 199.9% and 169.8% and 204.0% and 151.4%
Dopamine uptake, counts/min, Mean ([1]; 5.0 μM): 12001.8 counts/min
Dopamine uptake, counts/min, individual cultures ([1]; 5.0 μM): 11014 counts/min and 13509 counts/min and 11471 counts/min and 13786 counts/min and 10229 counts/min
Dopamine uptake, % control, Mean ([1]; 50 μM): 304.3%
Dopamine uptake, % control, individual cultures ([1]; 50 μM): 262.1% and 341.8% and 318.7% and 259.3% and 339.9%
Dopamine uptake, counts/min, Mean ([1]; 50 μM): 20562.2 counts/min
Dopamine uptake, counts/min, individual cultures ([1]; 50 μM): 17708 counts/min and 23090 counts/min and 21530 counts/min and 17520 counts/min and 22963 counts/min
Mean Grip Strength (gm) (wobbler mouse): 20 (0-63) gm
Dopamine uptake, % control, Mean ([2]; 0.5 μM): 141.9%
Dopamine uptake, % control, individual cultures ([2]; 0.5 μM): 142.3% and 152.4% and 142.6% and 130.4%
Dopamine uptake, counts/min, Mean ([2]; 0.5 μM): 29800.75 counts/min
Dopamine uptake, counts/min, individual cultures ([2]; 0.5 μM): 29885 counts/min and 32002 counts/min and 29934 counts/min and 27382 counts/min
neuron protection by measurement of dopamine uptake (FIG. 15) ([2]; 5 μM): neuron protection
Dopamine uptake, % control, Mean ([2]; 5.0 μM): 153.7%
Dopamine uptake, % control, individual cultures ([2]; 5.0 μM): 155.2% and 142.1% and 173.2% and 144.5%
Dopamine uptake, counts/min, Mean ([2]; 5.0 μM): 32280 counts/min
Dopamine uptake, counts/min, individual cultures ([2]; 5.0 μM): 32577 counts/min and 29831 counts/min and 36370 counts/min and 30342 counts/min
more axonal growth and terminal axonal survival compared to untreated control cells [2]: 40%
3H-Dopamine uptake as a percentage + SEM [2]: 140.82 ± 26.20%
neuron protection by measurement of dopamine uptake (FIG. 15) ([2]; 50 μM): neuron protection
Dopamine uptake, % control, Mean ([2]; 50 μM): 185.5%
Dopamine uptake, % control, individual cultures ([2]; 50 μM): 178.3% and 186.7% and 186.3% and 190.6%
Dopamine uptake, counts/min, Mean ([2]; 50 μM): 38944.75 counts/min
Dopamine uptake, counts/min, individual cultures ([2]; 50 μM): 37440 counts/min and 39200 counts/min and 39126 counts/min and 40013 counts/min
IFN-γ % control (γ-interferon production): 777%
IFN-γ U/ml mean (γ-interferon production): 2728 U/ml
innervation in the spleens, histological examination (rat spleens): significant increase in innervation
IL-2 production after treatment (interleukin-2 production): not enhanced
IL-2 % control (interleukin-2 production; [3]): 223%
IL-2 U/ml mean (interleukin-2 production; [3]): 43.7 U/ml
IL-2 U/ml mean (interleukin-2 production; […] (for R(−)DMS by group order)): 64.54 U/ml
IL-2 U/ml mean (interleukin-2 production; dose not printed in row, by group order […]): 55.17 U/ml
MAO-A % Inhibition x = SEM (MAO-A; 300 nM, guinea pig hippocampus): 4.8 ± 2.1%
MAO-A % Inhibition x = SEM (MAO-A; 1 μM, guinea pig hippocampus): 4.2 ± 1.5%
MAO-A % Inhibition x = SEM (MAO-A; 3 μM, guinea pig hippocampus): 10.5 ± 2.0%
MAO-A % Inhibition x = SEM (MAO-A; 10 μM, guinea pig hippocampus): 19.0 ± 1.3%
MAO-A % Inhibition x = SEM (MAO-A; 100 μM, guinea pig hippocampus): 64.2 ± 1.5%
MAO-A % Inhibition x = SEM (MAO-A; 1 mM, guinea pig hippocampus): 96.5 ± 1.2%
reduction in potency compared to selegiline (value in parentheses) (MAO-A): 20
IC50 (MAO-A; read-out: IC50 for MAO-A in Guinea Pig Hippocampal Cortex): 50 µM

C#CCN[C@@H](C)Cc1ccccc1 (single isomer, unassigned) [S(+)DMS, ent-desmethylselegiline]
Dopamine uptake, % control, Mean ([1]; 0.5 μM): 187.4%
Dopamine uptake, % control, individual cultures ([1]; 0.5 μM): 164.2% and 179.0% and 181.6% and 242.7% and 169.2%
Dopamine uptake, counts/min, Mean ([1]; 0.5 μM): 12658.2 counts/min
Dopamine uptake, counts/min, individual cultures ([1]; 0.5 μM): 11096 counts/min and 12092 counts/min and 12269 counts/min and 16399 counts/min and 11435 counts/min
Dopamine uptake, % control, Mean ([1]; 5.0 μM): 246.9%
Dopamine uptake, % control, individual cultures ([1]; 5.0 μM): 229.9% and 300.6% and 245.4% and 235.8% and 222.8%
Dopamine uptake, counts/min, Mean ([1]; 5.0 μM): 16681.6 counts/min
Dopamine uptake, counts/min, individual cultures ([1]; 5.0 μM): 15535 counts/min and 20313 counts/min and 16579 counts/min and 15929 counts/min and 15052 counts/min
Dopamine uptake, % control, Mean ([1]; 50 μM): 448.9%
Dopamine uptake, % control, individual cultures ([1]; 50 μM): 371.5% and 384.0% and 422.5% and 577.9% and 488.8%
Dopamine uptake, counts/min, Mean ([1]; 50 μM): 30331.2 counts/min
Dopamine uptake, counts/min, individual cultures ([1]; 50 μM): 25101 counts/min and 25944 counts/min and 28545 counts/min and 39042 counts/min and 33024 counts/min
Mean Grip Strength (gm) (wobbler mouse): 14 (7-20) gm
more axonal growth and terminal axonal survival compared to untreated control cells [2]: 134%
3H-Dopamine uptake as a percentage + SEM [2]: 234 ± 38.36%
γ-interferon levels in old rats after administration (γ-interferon production; most dramatic increases at 1.0 mg/kg body weight): restoration of γ-interferon levels
IFN-γ % control (γ-interferon production): 261%
IFN-γ U/ml mean (γ-interferon production): 918 U/ml
innervation in the spleens, histological examination (rat spleens): did not show any effect
IL-2 production after treatment (interleukin-2 production): not enhanced
IL-2 % control (interleukin-2 production; [3]): 291%
IL-2 U/ml mean (interleukin-2 production; [3]): 57.12 U/ml
IC50 (MAO-A): 100 µM
inhibition at 1 µM (MAO-A; 1 μM, guinea pig hippocampus, read-out: MAO-A % Inhibition x = SEM): 3.3 ± 1.5%
inhibition at 3 µM (MAO-A; 3 μM, guinea pig hippocampus, read-out: MAO-A % Inhibition x = SEM): 4.3 ± 1%
inhibition at 10 µM (MAO-A; 10 μM, guinea pig hippocampus, read-out: MAO-A % Inhibition x = SEM): 10.5 ± 1.47%
inhibition at 100 µM (MAO-A; 100 μM, guinea pig hippocampus, read-out: MAO-A % Inhibition x = SEM): 48.4 ± 1.8%
inhibition at 1000 µM (MAO-A; 1 mM, guinea pig hippocampus, read-out: MAO-A % Inhibition x = SEM): 92.7 ± 2.5%
inhibition at 10000 µM (MAO-A; 10 mM, guinea pig hippocampus, read-out: MAO-A % Inhibition x = SEM): 99.6 ± 0.35%
reduction in potency compared to selegiline (value in parentheses) (MAO-A): 40
